Results taken from patent US5198451A, “Heterocyclic carboxylic acids” (Novo Nordisk A/S, priority 1989, dated 1993).
Where a name gives a salt, the structure may show the parent alone.

system: GABA uptake; test: not given; details: Yunger, L. M. et al., J. Pharm. Exp. Therap. 228 (1984) 109; cited from earlier work

SMILES	inhibition of GABA uptake, oral activity
O=C(O)C1CCCN(CCC=C(c2ccccc2)c2ccccc2)C1 (stereo not drawn) [SK&F 89976A, N-(4,4-diphenyl-3-buten-1-yl)nipecotic acid]	orally active inhibitors of GABA uptake
O=C(O)C1=CCCN(CCC=C(c2ccccc2)c2ccccc2)C1 [SK&F 100330A, N-(4,4-diphenyl-3-buten-1-yl)guvacine]	orally active inhibitors of GABA uptake
O=C(O)CC1CCN(CCC=C(c2ccccc2)c2ccccc2)C1 (stereo not drawn) [SK&F 100561, N-(4,4-diphenyl-3-buten-1-yl)homo-β-proline]	orally active inhibitors of GABA uptake
O=C(O)C1CCCN(CCC=C(c2ccccc2)c2cccs2)C1 (stereo not drawn) [SK&F 100604J, N-(4-phenyl-4-(2-thienyl)-3-buten-1-yl)nipecotic acid]	orally active inhibitors of GABA uptake

same assay, conditions: background art; cited from earlier work

SMILES	inhibitor of GABA uptake from the synaptic cleft into presynaptic nerve terminals and glial cells
O=C(O)C1CCCNC1 (stereo not drawn) [nipecotic acid, piperidine-3-carboxylic acid]	well-known and potent inhibitor of GABA uptake

system: [^3 H]-GABA uptake; test: Inhibition of [^3 H]-GABA uptake in vitro (Male Wistar rat cortical tissue homogenate); format: biochemical; details: tris HCl buffer pH 7.5, 60 min at 30° C.
Description: Values for in vitro inhibition of [^3 H]-GABA uptake for these compounds were assessed essentially by the method of Fjalland (Acta Pharmacol.Toxicol. 42 (1978) 73-76). Male Wistar rat cortical tissue was gently homogenized by hand using a glass/PTFE homogenizer in 10 volumes of 0.32 M sucrose. Incubation was performed in a 40 mM tris HCl buffer (pH 7.5 at 30° C.) containing […], […], 4 mM MgSO4, 2.3 mM CaCl2 and 10 mM glucose, for 60 min. at 30° C.) Values for inhibition of GABA uptake for some representative compounds are recorded in Table I.

IC50 [nM]	SMILES
108	O=C(O)[C@@H]1CCCN(CCOCCN(c2ccccc2)c2ccccc2)C1 [Example 2, (R)-N-(2-(2-(Diphenylamino)ethoxy)ethyl)-3-piperidinecarboxylic acid hydrochloride]
670	O=C(O)[C@@H]1CCCN(CCCCCCN(c2ccccc2)c2ccccc2)C1 [Example 4, (R)-N-(6-(Diphenylamino)-1-hexyl)-3-piperidinecarboxylic acid hydrochloride]
222	O=C(O)[C@@H]1CCCN(CCCCCCCN(c2ccccc2)c2ccccc2)C1 [Example 8, (R)-N-(7-(Diphenylamino)-1-heptyl)-3-piperidinecarboxylic acid hydrochloride]
51	O=C(O)[C@@H]1CCCN(CCOCCC(c2ccccc2)c2ccccc2)C1 [Example 14, (R)-N-(2-(3,3-Diphenyl-1-propyloxy)ethyl)-3-piperidinecarboxylic acid hydrochloride]
49	O=C(O)C1=CCCN(CCOCCC(c2ccccc2)c2ccccc2)C1 [Example 16, N-(2-(3,3-Diphenyl-1-propyloxy)ethyl)-1,2,5,6-tetrahydro-3-pyridinecarboxylic acid hydrochloride]
43	O=C(O)[C@@H]1CCCN(CCOCCC(c2ccccc2)c2cccc(C(F)(F)F)c2)C1 (stereo partly drawn) [Example 18, (R)-N-(2-(3-Phenyl-3-(3-(trifluoromethyl)phenyl)-1-propyloxy)ethyl)-3-piperidinecarboxylic acid hydrochloride]

system: not given; test: not given; details: background art; cited from earlier work

SMILES	ability to cross the blood-brain barrier
O=C(O)C1CCCNC1 (stereo not drawn) [nipecotic acid, piperidine-3-carboxylic acid]	unable to cross the blood-brain barrier
